Measured values published in publication PMC6337650 (Molecules, 2018).

Experiments:
[1] = tested on: HCT-116 cells; assay: MTT antiproliferative assay, HCT-116; type: cell-based, human; conditions: Homo sapiens, HCT-116, 48 h, MTT, mean ± SD, n=3; for inhibition at 100 µM: read-out: % Growth Inhibition at 100 μM HCT-116
Procedure: (§1) The antiproliferative activity of the target compounds against a normal L02 cell line and the three different human cancer cell lines viz. colorectal (HCT-116), liver (BEL-7402) and liver (HepG2) were evaluated using a standard MTT-based colorimetric assay. All cell lines were obtained from the Key Laboratory of Natural Resources and Functional Molecules of the Changbai Mountain (Yanbian University, Jilin, China) and maintained in Dulbecco’s modified Eagle’s medium (DMEM) and RPMI Media 1640 (RPMI1640), supplemented with 10% fetal bovine serum (FBS) at 37 °C in a humidified atmosphere containing 5% CO2.
(§2) Cells were plated in 96-well plates at appropriate densities to ensure exponential growth throughout the experimental period (9 × 10^3 cells per well) and then allowed to adhere for 24 h. Cells were then treated for 48 h with four serial concentrations (1, 10, 50 and 100 µM) of each compound. 5-fluorouracil (5-FU) was used as a positive control. After 48 h of incubation, 10 µL of MTT solution was added to each well to a final concentration of 2 mg/mL. Plates were then incubated for a further 4 h. After incubation, the MTT solution was removed and 150 µL of DMSO was added to each well for coloration. The plates were shaken vigorously for 10 min at room temperature to ensure complete solubilization. The optical density (OD) was read on a microplate reader (ELx800, BioTek, Highland Park, Winooski, VT, USA) at a wavelength of 492 nm and the data were subsequently analyzed. The percentage of cell growth inhibition was calculated from the following equation: Inhibitory rate (%) = [(1 − (ODtreated-ODblank)/(ODcontrol-ODblank)] × 100.(1)

[2] = tested on: HepG2 cells; assay: MTT antiproliferative assay, HepG2; type: cell-based, human; conditions: Homo sapiens, HepG2, 48 h, MTT, mean ± SD, n=3; for inhibition at 100 µM: read-out: % Growth Inhibition at 100 μM HepG2
Procedure: as §1, §2

[3] = tested on: L02 cells; assay: MTT assay on normal liver cells L02; type: cell-based; conditions: Homo sapiens, normal liver cells, 48 h, MTT, Table 2, read-out: IC50 Values (μM) L02
Procedure: as §1
as §2, with “5-fluorouracil (5-FU) was used as a positive control.” left out

[4] = tested on: BEL-7402 cells; assay: MTT antiproliferative assay, BEL-7402; type: cell-based, human; conditions: Homo sapiens, Bel-7402, 48 h, MTT, mean ± SD, n=3; for inhibition at 100 µM: read-out: % Growth Inhibition at 100 μM BEL-7402
Procedure: as §1, §2

[5] = tested on: HeLa cells; conditions: read-out: IC50 against HeLa cells; cited from earlier work
[6] = tested on: HT29 cells; conditions: cell line printed as HT24 in b5; read-out: IC50 against HT24 cell line; cited from earlier work
[7] = tested on: T24 cells; conditions: Figure 2; read-out: IC50 against T24 cells; cited from earlier work
[8] = tested on: HL-60 cells; parameters: method as in PMID 26653151, PMID 25405286; conditions: Figure 2; read-out: IC50 against HL-60 cells; cited from earlier work

| Structure (SMILES) | inhibition at 100 µM [1] | IC50 [1] | inhibition at 100 µM [2] | IC50 [2] | melting point | IC50 [3] | inhibition at 100 µM [4] | IC50 [4] | IC50 [5] | IC50 [6] | IC50 [7] | IC50 [8] |
| --- | --- | --- | --- | --- | --- | --- | --- | --- | --- | --- | --- | --- |
| COC(=O)C(Cc1ccccc1)NC(=O)C1(C)CCCC2(C)C3CCC4(C)CC3(CCC12)CC4=O [Compound 3b, Methyl((4R,4aS,6aR,9S,11aR,11bS)-4,9,11b-trimethyl-8-oxotetradecahydro-6a,9-methanocyclohepta[a]naphthalene-4-carbonyl)-D-phenylalaninate] | 70.8 ± 0.98% | 22.8 ± 0.81 µM | 81.2 ± 2.66% | 24.4 ± 1.75 µM | 147 to 148 °C | > 100 µM | 61.8 ± 0.96% | 36.5 ± 0.67 µM | – | – | – | – |
| C[C@@]12CC[C@@H]3[C@@](CC[C@H]4[C@@]3(C)CCC[C@@]4(C)C(=O)OCC(=O)Nc3ccccc3)(CC1=O)C2 [Compound 4a, 2-oxo-2-(phenylamino)ethyl(4R,4aS,6aR,9S,11aR,11bS)-4,9,11b-trimethyl-8-oxotetradecahydro-6a,9-methanocyclohepta[a]naphthalene-4-carboxylate] | 60.4 ± 3.11% | 56.6 ± 1.56 µM | 31.2 ± 1.19% | > 100 µM | 154 to 156 °C | > 100 µM | 50.8 ± 2.31% | > 100 µM | – | – | – | – |
| C[C@@]12CC[C@@H]3[C@@](CC[C@H]4[C@@]3(C)CCC[C@@]4(C)C(=O)OCC(=O)Nc3cccc(F)c3)(CC1=O)C2 [Compound 4f, 2-((3-fluorophenyl)amino)-2-oxoethyl(4R,4aS,6aR,9S,11aR,11bS)-4,9,11b-trimethyl-8-oxotetradecahydro-6a,9-methanocyclohepta[a]naphthalene-4-carboxylate] | 68.7 ± 2.67% | 17.2 ± 0.43 µM | 49.12 ± 0.44% | > 100 µM | 144 to 145 °C | > 100 µM | 54.6 ± 3.11% | > 100 µM | – | – | – | – |
| C[C@@]12CC[C@@H]3[C@@](CC[C@H]4[C@@]3(C)CCC[C@@]4(C)C(=O)OCC(=O)Nc3ccc([N+](=O)[O-])cc3)(CC1=O)C2 [Compound 4h, 2-((4-nitrophenyl)amino)-2-oxoethyl(4R,4aS,6aR,9S,11aR,11bS)-4,9,11b-trimethyl-8-oxotetradecahydro-6a,9-methanocyclohepta[a]naphthalene-4-carboxylate] | 55.4 ± 2.55% | > 100 µM | 76.5 ± 1% | 14.1 ± 0.27 µM | 189 to 190 °C | > 100 µM | 71.4 ± 2.36% | 12.14 ± 0.12 µM | – | – | – | – |
| C[C@@]12CC[C@@H]3[C@@](CC[C@H]4[C@@]3(C)CCC[C@@]4(C)C(=O)OCC(=O)NCc3cn(-c4ccccc4)nn3)(CC1=O)C2 [Compound 5a, 2-oxo-2-(((1-phenyl-1H-1,2,3-triazol-4-yl)methyl)amino)ethyl(4R,4aS,6aR,9S,11aR,11bS)-4,9,11b-trimethyl-8-oxotetradecahydro-6a,9-methanocyclohepta[a]naphthalene-4-carboxylate] | 81.9 ± 2.55% | 14.6 ± 0.51 µM | 87 ± 1.06% | 9.87 ± 0.13 µM | 83 to 84 °C | > 100 µM | 90 ± 1.92% | 27.1 ± 0.87 µM | – | – | – | – |
| C[C@@]12CC[C@@H]3[C@@](CC[C@H]4[C@@]3(C)CCC[C@@]4(C)C(=O)OCC(=O)NCc3cn(-c4ccc(Cl)cc4)nn3)(CC1=O)C2 [Compound 5b, 2-(((1-(4-chlorophenyl)-1H-1,2,3-triazol-4-yl)methyl)amino)-2-oxoethyl(4R,4aS,6aR,9S,11aR,11bS)-4,9,11b-trimethyl-8-oxotetradecahydro-6a,9-methanocyclohepta[a]naphthalene-4-carboxylate] | 85.6 ± 1.34% | 7.44 ± 0.37 µM | 82.1 ± 1.82% | 11.7 ± 0.23 µM | 80 to 82 °C | > 100 µM | 90.5 ± 1.04% | 22.5 ± 0.58 µM | – | – | – | – |
| COc1ccc(-n2cc(CNC(=O)COC(=O)[C@]3(C)CCC[C@@]4(C)[C@@H]5CC[C@@]6(C)C[C@]5(CC[C@@H]43)CC6=O)nn2)cc1 [Compound 5c, 2-(((1-(4-methoxyphenyl)-1H-1,2,3-triazol-4-yl)methyl)amino)-2-oxoethyl(4R,4aS,6aR,9S,11aR,11bS)-4,9,11b-trimethyl-8-oxotetradecahydro-6a,9-methanocyclohepta[a]naphthalene-4-carboxylate] | 84.6 ± 1.55% | 14.4 ± 1.31 µM | 82.8 ± 2.02% | 12.3 ± 0.77 µM | 71 to 72 °C | > 100 µM | 75.6 ± 1.76% | > 100 µM | – | – | – | – |
| C[C@@]12CC[C@@H]3[C@@](CC[C@H]4[C@@]3(C)CCC[C@@]4(C)C(=O)OCC(=O)NCc3cn(-c4ccc(Cl)c(Cl)c4)nn3)(CC1=O)C2 [Compound 5e, 2-(((1-(3,4-dichlorophenyl)-1H-1,2,3-triazol-4-yl)methyl)amino)-2-oxoethyl(4R,4aS,6aR,9S,11aR,11bS)-4,9,11b-trimethyl-8-oxotetradecahydro-6a,9-methanocyclohepta[a]naphthalene-4-carboxylate] | 71.14 ± 0.65% | 14.3 ± 0.15 µM | 66.1 ± 0.97% | 12.82 ± 0.09 µM | 96 to 97 °C | > 100 µM | 68 ± 1.17% | > 100 µM | – | – | – | – |
| CCOP(=O)(OCC)C(NC(=O)COC(=O)[C@]1(C)CCC[C@@]2(C)[C@@H]3CC[C@@]4(C)C[C@]3(CC[C@@H]21)CC4=O)c1ccc(OC)cc1 (stereo partly drawn) [Compound 6c, 2-(((diethoxyphosphoryl)(4-methoxyphenyl)methyl)amino)-2-oxoethyl(4R,4aS,6aR,9S,11aR,11bS)-4,9,11b-trimethyl-8-oxotetradecahydro-6a,9-methanocyclohepta[a]naphthalene-4-carboxylate] | 74.1 ± 2.45% | 15.15 ± 0.11 µM | 41.4 ± 1.86% | > 100 µM | 134 to 135 °C | > 100 µM | 50.9 ± 2.68% | 92.6 ± 1.96 µM | – | – | – | – |
| CCOP(=O)(OCC)C(NC(=O)COC(=O)[C@]1(C)CCC[C@@]2(C)[C@@H]3CC[C@@]4(C)C[C@]3(CC[C@@H]21)CC4=O)c1ccc(C)cc1 (stereo partly drawn) [Compound 6d, 2-(((diethoxyphosphoryl)(p-tolyl)methyl)amino)-2-oxoethyl(4R,4aS,6aR,9S,11aR,11bS)-4,9,11b-trimethyl-8-oxotetradecahydro-6a,9-methanocyclohepta[a]naphthalene-4-carboxylate] | 76.6 ± 2.33% | 18.7 ± 0.17 µM | 80.64 ± 0.76% | 13.2 ± 0.86 µM | 119 to 120 °C | > 100 µM | 51.5 ± 0.68% | 60.9 ± 1.37 µM | – | – | – | – |
| CC(=O)O[C@H]1CC[C@@]2(C)C(CC[C@]3(C)C2CC=C2C4[C@@H](C)[C@H](C)CC[C@]4(C(=O)Nc4ccccc4)CC[C@]23C)C1(C)C (stereo partly drawn) [Compound A] | – | – | – | – | – | – | – | – | 1.63 µM | – | – | – |
| CC(=O)O[C@H]1CC[C@@]2(C)C(CC[C@]3(C)C2CC=C2C4CC(C)(C)CC[C@]4(C(=O)NCCN4CCCC4)CC[C@]23C)C1(C)C (stereo partly drawn) [Compound B] | – | – | – | – | – | – | – | – | – | 1.3 µM | – | – |
| CCOP(=O)(OCC)C(NC(=O)[C@]12CC[C@@H](C)[C@H](C)[C@H]1C1=CC[C@@H]3[C@@]4(C)C[C@@H](OC(C)=O)[C@H](OC(C)=O)[C@@](C)(COC(C)=O)[C@@H]4CC[C@@]3(C)[C@]1(C)CC2)c1ccccc1Cl (stereo partly drawn) [Compound D] | – | – | – | – | – | – | – | – | – | – | 6.59 µM | – |
| COC(=O)[C@]1(C)CCC[C@@]2(C)[C@@H]3CC[C@@]4(C)C[C@@]3(C=C4c3cn(CCCc4ccccc4)nn3)CC[C@@H]21 [Compound E] | – | – | – | – | – | – | – | – | – | – | – | 25.6 µM |
